We go through three molecules from patent US10266511B2, “No-releasing nitrooxy-chromene conjugates” (priority 2014, dated 2019).

Each structure is given as a SMILES string.

This assay has as its system PGE2 production. The experiment in a line: Rat air-pouch model for acute inflammation (exudate PGE2 by ELISA). It is filed as in vivo, Sprague-Dawley rats. As to conditions: oral gavage 0.01 mmol/kg 2 h before carrageenan, exudate 4 h after carrageenan. As for the experimental part:
A study of chromene release is assessed by measurement of PGE2 levels, which are indicative of inflammatory response. Compounds of the present invention lower the inflammatory response by selective COX-2 inhibition, decreasing PGE-2 levels in patients.
Animals: Sprague-Dawley rats (Charles River Laboratories, R #3234, PO #738990, male, 160-180 g) are received, individually examined, and housed in cages of five rats each. The rats are ear notched for identification purposes.
Compounds and dosing solutions: The vehicle is prepared by dissolving 40 g (2-hydroxypropyl)-β-cyclodextrin (HP-β-CD, Sigma, Cat. 332593, lot MKBJ5858V) in 160 mL sterile saline for injection, USP (Hospira, lot 26-801-FW) making a 25% solution which is filter sterilized (0.2 μm, Nalgene, Cat. 151-4020, lot 1095610). A 1% carrageenan solution is prepared by dissolving 0.6 g λ-carrageenan (Fluka, Cat. 22049, lot 1318338) in hot 60 mL sterile saline for injection, USP. This solution is stored at 4-8° C. Test compounds are dissolved in DMSO (Fisher Scientific, Cat. D128-500, lot 874999) to make 75 mM stocks. 0.25 mL of compound DMSO stocks are mixed with 12.5 mL of HP-β-CD solution at 50° C. (maximum DMSO concentration is 2% of the final volume of vehicle,). […]
Day 6—Compound administration and carrageenan insult: At commencement of the study, each rat is weighed and sorted into treatment groups of 5 rats/group based upon average weight. […] The pouch is gently massaged, the exudate immediately removed, and exudate volume recorded. […]
Data analysis: The exudate samples are thawed to room temperature and assayed by ELISA for PGE2 (R&D Systems, Cat. KGE004B, lot 307711). Statistical significance of treatments on mean exudate volumes are determined by comparison of means for treatment groups with vehicle group. Mean cytokine concentrations and standard deviations are determined for each group. Statistical significance of treatments on cytokine concentrations are determined for each compound group compared to vehicle group. Statistical significance (p-value) is calculated vs control groups by Student's t-Test. […]

As for `CC(C)(C)c1cc2c(cc1Cl)C=C(C(=O)OC(CO[N+](=O)[O-])CO[N+](=O)[O-])C(C(F)(F)F)O2` (stereo not drawn) [Example 22a, 1,3-bis(Nitrooxy)propan-2-yl 7-(tert-butyl)-6-chloro-2-(trifluoromethyl)-2H-chromene-3-carboxylate], the “% Inhibition of PGE2 production relative to control (+/−S.D.)” value was 75.4 (+/−9.1) %.

As for `CC(C)(C)c1cc2c(cc1Cl)C=C(C(=O)O[C@H]1CO[C@H]3[C@@H]1OC[C@H]3O[N+](=O)[O-])[C@@H](C(F)(F)F)O2` [Example 33, (S)-(3S,3aR,6R,6aS)-6-(nitrooxy)hexahydrofuro[3,2-b]furan-3-yl 7-(tert-butyl)-6-chloro-2-(trifluoromethyl)-2H-chromene-3-carboxylate], the “% Inhibition of PGE2 production relative to control (+/−S.D.)” value is reported as 91.8 (+/−4.9) %.

In the case of `CC(C)(C)c1cc2c(cc1Cl)C=C(C(=O)O[C@H]1CO[C@H]3[C@@H]1OC[C@H]3O[N+](=O)[O-])C(C(F)(F)F)O2` (stereo partly drawn) [Example 33a, (3S,3aR,6R,6aS)-6-(nitrooxy)hexahydrofuro[3,2-b]furan-3-yl 7-(tert-butyl)-6-chloro-2-(trifluoromethyl)-2H-chromene-3-carboxylate], the “% Inhibition of PGE2 production relative to control (+/−S.D.)” value is listed as 76.7 (+/−7.8) %.
